Experimental data published in patent US11780826B2 (Amgen Inc., priority 2017, dated 2023).

system: Bovine cardiac myofibrils; assay: In vitro model of dose-dependent myofibril ATPase modulation (AC1.4, pyruvate kinase/lactate dehydrogenase-coupled ATPase assay at pCa25); format: biochemical; settings: concentration at which ATPase activity was 1.4-fold higher than the bottom of the dose curve, mean of a minimum of two independent tests
Outline: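 ATP turnover tracked as NADH absorbance loss at 340 nm, coupled via pyruvate kinase/lactate dehydrogenase, with 1 mM ATP, 2 mM MgCl2 and 12 mM K-PIPES at pH 6.80 (22° C) under EGTA/CaCl2 calcium buffering. Substrate was detergent-treated bovine cardiac myofibrils; 4-parameter curve fit, AC1.4 averaged over at least two runs.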

Point of comparison: `O=C(N[C@@H](c1cc(F)c(Cl)cc1F)C1CC1)[C@H]1C[C@H]2C[C@H]2N1C(=O)c1cccc(S(=O)(=O)C2CC2)c1` [Example 92, (1R,3R,5R)-N-((R)-(4-chloro-2,5-difluorophenyl)(cyclopropyl)methyl)-2-(3-(cyclopropylsulfonyl)benzoyl)-2-azabicyclo[3.1.0]hexane-3-carboxamide], AC1.4 0.1388 µM. Against it:
- C[C@@H](NC(=O)[C@H]1CCCN1C(=O)c1cccc(S(=O)(=O)N2CC(C#N)C2)c1)c1ccc(Cl)cc1 [Example 71, N-((1R)-1-(4-chlorophenyl)ethyl)-1-((3-((3-cyano-1-azetidinyl)sulfonyl)phenyl)carbonyl)-D-prolinamide] — 1.6-fold lower, 0.08898 µM
- CS(=O)(=O)C1CN(S(=O)(=O)N2CCC[C@H](C(=O)N3CCC[C@@H]3C(=O)NCc3ccc(C(F)(F)F)cc3)C2)C1 [Example 72, 1-(((3S)-1-((3-(methylsulfonyl)-1-azetidinyl)sulfonyl)-3-piperidinyl)carbonyl)-N-(4-(trifluoromethyl)benzyl)-D-prolinamide] — 1.5-fold lower, 0.09025 µM
- C[C@@H](NC(=O)[C@H]1CCCN1C(=O)[C@@H]1CN(S(=O)(=O)N2CC(C#N)C2)CCO1)c1ccc(C(F)(F)F)cc1F [Example 73, 1-(((2S)-4-((3-cyano-1-azetidinyl)sulfonyl)-2-morpholinyl)carbonyl)-N-((1R)-1-(2-fluoro-4-(trifluoromethyl)phenyl)ethyl)-D-prolinamide] — within 1.5-fold, 0.09745 µM
- CS(=O)(=O)c1cccc(C(=O)N2[C@@H](C(=O)N[C@@H](c3cc(F)c(Cl)cc3F)C3COC3)C[C@H]3C[C@H]32)c1 [Example 74, (1R,3R,5R)-N-((R)-(4-chloro-2,5-difluorophenyl)(3-oxetanyl)methyl)-2-(3-(methylsulfonyl)benzoyl)-2-azabicyclo[3.1.0]hexane-3-carboxamide] — within 1.5-fold, 0.09935 µM
- CN(Cc1ccc(C(F)(F)F)cc1)C(=O)[C@H]1CCCN1C(=O)c1cccc(S(=O)(=O)N2CC(C#N)C2)c1 [Example 75, 1-((3-((3-cyano-1-azetidinyl)sulfonyl)phenyl)carbonyl)-N-methyl-N-(4-(trifluoromethyl)benzyl)-D-prolinamide] — within 1.5-fold, 0.1006 µM
- Cc1ccc(CNC(=O)[C@H]2CCCN2C(=O)c2cccc(S(=O)(=O)N3CC(C#N)C3)c2)c(F)c1 [Example 76, 1-((3-((3-cyano-1-azetidinyl)sulfonyl)phenyl)carbonyl)-N-(2-fluoro-4-methylbenzyl)-D-prolinamide] — within 1.5-fold, 0.1008 µM
- N#CC1CN(S(=O)(=O)N2CC(C(=O)N3CCC[C@@H]3C(=O)NCc3ccc(C(F)(F)F)cc3)CC(F)(F)C2)C1 (stereo partly drawn) [Example 77, 1-((-1-((3-cyano-1-azetidinyl)sulfonyl)-5,5-difluoro-3-piperidinyl)carbonyl)-N-(4-(trifluoromethyl)benzyl)-D-prolinamide] — within 1.5-fold, 0.1016 µM
- N#CC1CN(S(=O)(=O)N2CCC[C@H](C(=O)N3CCC[C@@H]3C(=O)N[C@H](CO)c3ccc(Cl)c(F)c3)C2)C1 [Example 78, N-((1S)-1-(4-chloro-3-fluorophenyl)-2-hydroxyethyl)-1-(((3S)-1-((3-cyano-1-azetidinyl)sulfonyl)-3-piperidinyl)carbonyl)-D-prolinamide] — within 1.5-fold, 0.1023 µM
- CCNc1ccc(S(C)(=O)=O)cc1C(=O)N1CCC[C@@H]1C(=O)N[C@@H](c1ccc(C(F)(F)F)cc1F)C1CC1 [Example 79, N-((R)-cyclopropyl(2-fluoro-4-(trifluoromethyl)phenyl)methyl)-1-(2-(ethylamino)-5-(methylsulfonyl)benzoyl)-D-prolinamide] — within 1.5-fold, 0.104 µM
- COC(=O)CS(=O)(=O)c1cccc(C(=O)N2[C@@H](C(=O)N[C@@H](c3cc(F)c(C(F)(F)F)cc3F)C3CC3)C[C@H]3C[C@H]32)c1 [Example 80, methyl((3-(((1R,3R,5R)-3-(((R)-cyclopropyl(2,5-difluoro-4-(trifluoromethyl)phenyl)methyl)carbamoyl)-2-azabicyclo[3.1.0]hexan-2-yl)carbonyl)phenyl)sulfonyl)acetate] — within 1.5-fold, 0.1046 µM
- CC(C)Nc1ccc(S(C)(=O)=O)cc1C(=O)N1CCC[C@@H]1C(=O)N[C@@H](c1ccc(C(F)(F)F)cc1F)C1CC1 [Example 81, N-((R)-cyclopropyl(2-fluoro-4-(trifluoromethyl)phenyl)methyl)-1-(5-(methylsulfonyl)-2-(2-propanylamino)benzoyl)-D-prolinamide] — within 1.5-fold, 0.1048 µM
- C[C@@H]1CCN(S(=O)(=O)N2CC(C#N)C2)C[C@H]1C(=O)N1CCC[C@@H]1C(=O)NCc1ccc(C(F)(F)F)cc1 [Example 82, 1-(((3S,4R)-1-((3-cyano-1-azetidinyl)sulfonyl)-4-methyl-3-piperidinyl)carbonyl)-N-(4-(trifluoromethyl)benzyl)-D-prolinamide] — within 1.5-fold, 0.1085 µM
- CS(=O)(=O)c1cc(F)cc(C(=O)N2[C@@H](C(=O)N[C@@H](c3cc(F)c(Cl)cc3F)C3COC3)C[C@H]3C[C@H]32)c1 [Example 83, (1R,3R,5R)-N-((R)-(4-chloro-2,5-difluorophenyl)(3-oxetanyl)methyl)-2-(3-fluoro-5-(methylsulfonyl)benzoyl)-2-azabicyclo[3.1.0]hexane-3-carboxamide] — within 1.5-fold, 0.1146 µM
- C[C@@H](NC(=O)[C@H]1CCCN1C(=O)[C@H]1CCCN(S(=O)(=O)N2CC(C#N)C2)C1)c1ccc(C(F)(F)F)cc1 [Example 84, 1-(((3S)-1-((3-cyano-1-azetidinyl)sulfonyl)-3-piperidinyl)carbonyl)-N-((1R)-1-(4-(trifluoromethyl)phenyl)ethyl)-D-prolinamide] — within 1.5-fold, 0.1147 µM
- CC[C@H](NC(=O)[C@H]1CCCN1C(=O)c1cccc(S(=O)(=O)N2CC(C#N)C2)c1)c1ccc(C(F)(F)F)cc1 [Example 85, 1-(3-((3-cyano-1-azetidinyl)sulfonyl)benzoyl)-N-((1S)-1-(4-(trifluoromethyl)phenyl)propyl)-D-prolinamide] — within 1.5-fold, 0.1157 µM
- N#CC1CN(S(=O)(=O)N2CCC[C@H](C(=O)N3CCC[C@@H]3C(=O)N[C@H](CO)c3ccc(C(F)(F)F)cc3)C2)C1 [Example 88, 1-(((3S)-1-((3-cyano-1-azetidinyl)sulfonyl)-3-piperidinyl)carbonyl)-N-((1S)-2-hydroxy-1-(4-(trifluoromethyl)phenyl)ethyl)-D-prolinamide] — within 1.5-fold, 0.1344 µM
- CCCS(=O)(=O)c1cccc(C(=O)N2CCCC[C@@H]2C(=O)N[C@@H](c2ccc(C(F)(F)F)cc2F)C2CC2)c1 [Example 89, (2R)-N-((R)-cyclopropyl(2-fluoro-4-(trifluoromethyl)phenyl)methyl)-1-(3-(propylsulfonyl)benzoyl)-2-piperidinecarboxamide] — within 1.5-fold, 0.1357 µM
- N#CC1CN(S(=O)(=O)N2CCC[C@H](C(=O)N3C[C@H]4C[C@H]4[C@@H]3C(=O)NCc3ccc(C(F)(F)F)cc3)C2)C1 [Example 90, (1R,2R,5S)-3-(((3S)-1-((3-cyano-1-azetidinyl)sulfonyl)-3-piperidinyl)carbonyl)-N-(4-(trifluoromethyl)benzyl)-3-azabicyclo[3.1.0]hexane-2-carboxamide] — within 1.5-fold, 0.1363 µM
- N#CC1CN(S(=O)(=O)c2cccc(C(=O)N3Cc4ccccc4C3C(=O)NCc3ccc(C(F)(F)F)cc3)c2)C1 (stereo not drawn) [Example 93, 2-((3-((3-cyano-1-azetidinyl)sulfonyl)phenyl)carbonyl)-N-(4-(trifluoromethyl)benzyl)-2,3-dihydro-1H-isoindole-1-carboxamide] — within 1.5-fold, 0.1413 µM
- O=C(N[C@@H](c1cc(F)c(Cl)cc1F)C1COC1)[C@H]1C[C@H]2C[C@H]2N1C(=O)c1cccc(S(=O)(=O)CCO)c1 [Example 94, (1R,3R,5R)-N-((R)-(4-chloro-2,5-difluorophenyl)(3-oxetanyl)methyl)-2-(3-((2-hydroxyethyl)sulfonyl)benzoyl)-2-azabicyclo[3.1.0]hexane-3-carboxamide] — within 1.5-fold, 0.1425 µM
- N#CC1CN(S(=O)(=O)c2cccc(C(=O)N3CC(F)(F)C[C@@H]3C(=O)NCc3ccc(C(F)(F)F)nc3)c2)C1 [Example 95, 1-((3-((3-cyano-1-azetidinyl)sulfonyl)phenyl)carbonyl)-4,4-difluoro-N-((6-(trifluoromethyl)-3-pyridinyl)methyl)-D-prolinamide] — within 1.5-fold, 0.1446 µM
- N#CC1CN(S(=O)(=O)c2cccc(C(=O)N3CCCCCC3C(=O)NCc3ccc(C(F)(F)F)cc3)c2)C1 (stereo not drawn) [Example 96, (2)-1-((3-((3-cyano-1-azetidinyl)sulfonyl)phenyl)carbonyl)-N-(4-(trifluoromethyl)benzyl)-2-azepanecarboxamide] — within 1.5-fold, 0.1452 µM
- COCC(NC(=O)[C@H]1CCCN1C(=O)[C@H]1CCCN(S(=O)(=O)N2CC(C#N)C2)C1)c1ccc(Cl)cc1 (stereo partly drawn) [Example 97, N-(-1-(4-chlorophenyl)-2-methoxyethyl)-1-(((3S)-1-((3-cyano-1-azetidinyl)sulfonyl)-3-piperidinyl)carbonyl)-D-prolinamide] — within 1.5-fold, 0.1466 µM
- Cc1ccc([C@@H](C)NC(=O)[C@H]2CCCN2C(=O)[C@H]2CCCN(S(=O)(=O)N3CC(C#N)C3)C2)c(F)c1 [Example 98, 1-(((3S)-1-((3-cyano-1-azetidinyl)sulfonyl)-3-piperidinyl)carbonyl)-N-((1R)-1-(2-fluoro-4-methylphenyl)ethyl)-D-prolinamide] — within 1.5-fold, 0.1474 µM
- N#CC1CN(S(=O)(=O)N2CCC[C@H](C(=O)N3CCC[C@@H]3C(=O)NCc3ccc(Cl)cc3Cl)C2)C1 [Example 99, 1-(((3S)-1-((3-cyano-1-azetidinyl)sulfonyl)-3-piperidinyl)carbonyl)-N-(2,4-dichlorobenzyl)-D-prolinamide] — within 1.5-fold, 0.1484 µM
- N#CC1CN(S(=O)(=O)c2cccc(C(=O)N3CCC[C@@H]3C(=O)NCc3cc(F)cc(F)c3F)c2)C1 [Example 100, 1-(3-((3-cyano-1-azetidinyl)sulfonyl)benzoyl)-N-(2,3,5-trifluorobenzyl)-D-prolinamide] — within 1.5-fold, 0.1502 µM
